≈ marks a conversion by molar mass, not a printed value.
Experiments:
[1] = Lipophilicity, log D of the compound at pH 7.4; format: physicochemical; details: buffer
[2] = target: T1, Insulin-like growth factor 1 receptor (Homo sapiens, UniProt P08069); assay: Inhibition of IGF1R (unknown origin)
[3] = target: Calcium/calmodulin-dependent protein kinase kinase 2 (Homo sapiens) (UniProt Q96RR4); assay: Inhibition of CAMKKbeta (unknown origin) at 1 uM relative to control
[4] = target: T1, Insulin-like growth factor 1 receptor; assay: Inhibition of IGF1R (unknown origin) at 1 uM relative to control
NCI-H1975 [5] = assay: Cytotoxicity against human NCI-H1975 cells harboring EGFR L858R/[…] double mutant assessed as growth inhibition after 72 hrs by SYTOX green nucleic acid staining-based fluorescence assay; format: functional; details: Homo sapiens, NCI-H1975, 72 h
[6] = Cytotoxicity against human Calu3 cells assessed as growth inhibition after 72 hrs by SYTOX green nucleic acid staining-based fluorescence assay; format: functional, Calu-3; details: Homo sapiens, Calu-3, 72 h
NCI-H1975 [7] = assay: Antitumor activity against human NCI-H1975 cells harboring EGFR L858R/[…] double mutant xenografted in SCID mouse assessed as tumor growth inhibition at 10 mg/kg/day, po qd for 7 days relative to control; format: functional; details: Mus musculus, NCI-H1975, 168 h, read-out: TGI
[8] = Fraction unbound in Han Wistar rat plasma; format: ADME, cell-free
A-431 [9] = assay: Antitumor activity against human A431 cells xenografted in SCID mouse assessed as tumor growth inhibition at 5 mg/kg/day, po qd for 7 days relative to control; format: functional; details: Mus musculus, A-431, 168 h, read-out: TGI
[10] = Thermodynamic solubility of the compound at pH 7.4; format: physicochemical; details: buffer, read-out: Therm_solubility
A-431 [11] = assay: Antitumor activity against human A431 cells xenografted in SCID mouse assessed as tumor growth inhibition at […], po qd for 7 days relative to control; format: functional; details: Mus musculus, A-431, 168 h, read-out: TGI
[12] = Unbound fraction in human plasma; format: ADME, cell-free
A-431 [13] = assay: Antitumor activity against human A431 cells xenografted in SCID mouse assessed as tumor growth inhibition at 10 mg/kg/day, po qd for 7 days relative to control; format: functional; details: Mus musculus, A-431, 168 h, read-out: TGI
[14] = Cytotoxicity against human PC9 cells harboring EGFR exon 19 deletion activating mutant assessed as growth inhibition after 72 hrs by SYTOX green nucleic acid staining-based fluorescence assay; format: functional, PC-9; details: Homo sapiens, PC-9, 72 h
[15] = Unbound fraction in nude mouse plasma; format: ADME, cell-free
NCI-H1975 [16] = assay: Antitumor activity against human NCI-H1975 cells harboring EGFR L858R/[…] double mutant xenografted in SCID mouse assessed as tumor growth inhibition at 5 mg/kg/day, po qd for 7 days relative to control; format: functional; details: Mus musculus, NCI-H1975, 168 h, read-out: TGI
NCI-H1975 [17] = assay: Antitumor activity against human NCI-H1975 cells harboring EGFR L858R/[…] double mutant xenografted in SCID mouse assessed as tumor growth inhibition at […], po qd for 7 days relative to control; format: functional; details: Mus musculus, NCI-H1975, 168 h, read-out: TGI
[18] = target: Epidermal growth factor receptor (Homo sapiens, UniProt P00533); assay: Inhibition of wild type EGFR phosphorylation in human LoVo cells after 2 hrs by fluorescence assay; format: cell-based
[19] = Intrinsic clearance in mouse hepatocytes measured per 10^6 cells; format: ADME, cell-based, Hepatocyte; details: read-out: CLH
[20] = target: Epidermal growth factor receptor (Homo sapiens, UniProt P00533, EX19DEL); assay: Inhibition of EGFR exon 19 deletion activating mutant phosphorylation in human PC9 cells after 2 hrs by fluorescence assay; format: cell-based, PC-9
[21] = target: Epidermal growth factor receptor (Homo sapiens, UniProt P00533, L858R/T790M); assay: Inhibition of EGFR L858R/T790M double mutant phosphorylation in human NCI-H1975 cells after 2 hrs by fluorescence assay; format: cell-based
[22] = Intrinsic clearance in human hepatocytes measured per 10^6 cells; format: ADME, cell-based, Hepatocyte; details: read-out: CLH
[23] = Oral bioavailability in Han Wistar rat at 5 mg/kg; format: ADME, organism-based; details: in vivo
[24] = target: Voltage-gated inwardly rectifying potassium channel KCNH2 (Homo sapiens, UniProt Q12809); assay: Inhibition of human ERG
Chain of Voltage-gated inwardly rectifying potassium channel KCNH2 (Q12809 whole entry): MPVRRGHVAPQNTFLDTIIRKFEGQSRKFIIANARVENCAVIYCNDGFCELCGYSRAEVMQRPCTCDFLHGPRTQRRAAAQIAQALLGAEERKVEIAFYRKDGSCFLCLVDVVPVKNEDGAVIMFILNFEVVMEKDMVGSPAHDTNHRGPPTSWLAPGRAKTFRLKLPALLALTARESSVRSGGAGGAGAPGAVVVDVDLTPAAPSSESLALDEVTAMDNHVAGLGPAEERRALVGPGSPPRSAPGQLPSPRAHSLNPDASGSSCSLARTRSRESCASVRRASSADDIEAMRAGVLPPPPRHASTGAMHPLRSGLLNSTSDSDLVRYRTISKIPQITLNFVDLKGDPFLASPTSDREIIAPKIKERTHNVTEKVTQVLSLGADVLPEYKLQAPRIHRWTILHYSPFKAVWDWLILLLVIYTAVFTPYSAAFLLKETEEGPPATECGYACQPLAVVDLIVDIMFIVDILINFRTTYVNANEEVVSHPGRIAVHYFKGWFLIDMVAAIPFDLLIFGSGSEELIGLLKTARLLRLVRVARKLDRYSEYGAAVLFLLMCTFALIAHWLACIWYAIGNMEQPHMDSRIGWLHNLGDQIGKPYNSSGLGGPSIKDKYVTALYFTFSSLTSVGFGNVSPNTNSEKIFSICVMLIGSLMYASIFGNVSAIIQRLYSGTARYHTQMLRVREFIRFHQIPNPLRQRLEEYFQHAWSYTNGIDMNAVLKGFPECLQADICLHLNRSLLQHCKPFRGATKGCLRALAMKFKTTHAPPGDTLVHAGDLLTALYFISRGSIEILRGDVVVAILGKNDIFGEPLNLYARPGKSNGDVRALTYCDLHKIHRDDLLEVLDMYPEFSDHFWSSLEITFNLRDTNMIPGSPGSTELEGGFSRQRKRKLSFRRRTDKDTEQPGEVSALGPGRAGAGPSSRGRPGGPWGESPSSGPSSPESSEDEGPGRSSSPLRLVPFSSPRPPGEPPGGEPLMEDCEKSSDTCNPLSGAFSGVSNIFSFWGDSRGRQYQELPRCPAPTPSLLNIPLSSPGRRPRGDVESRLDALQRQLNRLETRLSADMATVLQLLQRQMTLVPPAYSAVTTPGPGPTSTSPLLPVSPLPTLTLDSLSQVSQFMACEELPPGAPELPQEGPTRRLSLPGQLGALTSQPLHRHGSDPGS

Rattus norvegicus = assay: Clearance in iv dosed Han Wistar rat; format: ADME, organism-based; details: in vivo
[25] = Cmax in mouse at 10 mg/kg, po; format: ADME, organism-based; parameters: dose 10 mg/kg, route oral; details: in vivo
Insulin receptor [26] = target: T2, Insulin receptor (Homo sapiens, UniProt P06213); assay: Inhibition of INSR (unknown origin) at 1 uM relative to control
T2 sequence (P06213 28-758 limits assumed): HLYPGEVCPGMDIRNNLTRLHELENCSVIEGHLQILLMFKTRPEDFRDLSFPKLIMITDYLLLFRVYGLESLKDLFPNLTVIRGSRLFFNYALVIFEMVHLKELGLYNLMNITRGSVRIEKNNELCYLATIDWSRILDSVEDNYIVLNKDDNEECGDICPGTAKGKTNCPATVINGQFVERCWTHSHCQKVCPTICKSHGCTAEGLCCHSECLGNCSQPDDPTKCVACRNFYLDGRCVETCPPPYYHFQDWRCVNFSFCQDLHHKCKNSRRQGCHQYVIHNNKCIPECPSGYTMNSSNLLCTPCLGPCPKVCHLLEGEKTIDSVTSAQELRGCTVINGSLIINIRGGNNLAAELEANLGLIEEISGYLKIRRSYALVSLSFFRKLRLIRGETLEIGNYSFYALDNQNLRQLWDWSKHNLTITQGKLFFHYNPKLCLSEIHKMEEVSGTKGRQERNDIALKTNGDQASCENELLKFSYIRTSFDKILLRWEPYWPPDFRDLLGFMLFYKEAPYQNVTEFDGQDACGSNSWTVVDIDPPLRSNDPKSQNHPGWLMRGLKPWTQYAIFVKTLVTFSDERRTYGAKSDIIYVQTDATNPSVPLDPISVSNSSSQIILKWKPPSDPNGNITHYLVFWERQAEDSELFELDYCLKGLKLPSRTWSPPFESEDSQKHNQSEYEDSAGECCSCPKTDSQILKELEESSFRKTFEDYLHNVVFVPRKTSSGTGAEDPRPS
T2 sequence (P06213 763-1382 limits assumed): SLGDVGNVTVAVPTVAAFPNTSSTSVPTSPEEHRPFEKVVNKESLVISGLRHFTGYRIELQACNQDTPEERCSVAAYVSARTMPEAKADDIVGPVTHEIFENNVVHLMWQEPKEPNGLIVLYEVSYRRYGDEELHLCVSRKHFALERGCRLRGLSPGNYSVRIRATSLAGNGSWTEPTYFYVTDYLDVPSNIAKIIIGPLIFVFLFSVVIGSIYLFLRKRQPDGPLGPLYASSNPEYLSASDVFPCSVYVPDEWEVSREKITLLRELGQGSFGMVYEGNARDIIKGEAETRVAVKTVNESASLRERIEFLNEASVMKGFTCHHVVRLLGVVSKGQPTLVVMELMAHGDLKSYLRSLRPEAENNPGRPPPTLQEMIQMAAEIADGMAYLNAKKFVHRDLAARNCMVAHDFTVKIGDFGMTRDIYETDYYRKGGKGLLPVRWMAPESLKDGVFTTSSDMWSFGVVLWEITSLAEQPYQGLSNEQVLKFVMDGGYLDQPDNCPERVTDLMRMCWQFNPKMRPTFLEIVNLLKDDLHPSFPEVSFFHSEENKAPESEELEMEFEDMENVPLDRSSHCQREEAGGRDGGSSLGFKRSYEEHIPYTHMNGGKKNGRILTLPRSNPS

[27] = target: Serine/threonine-protein kinase Chk2 (Homo sapiens) (UniProt O96017); assay: Inhibition of CHK2 (unknown origin) at 1 uM relative to control
Chain of Serine/threonine-protein kinase Chk2 (Homo sapiens) (O96017 whole entry): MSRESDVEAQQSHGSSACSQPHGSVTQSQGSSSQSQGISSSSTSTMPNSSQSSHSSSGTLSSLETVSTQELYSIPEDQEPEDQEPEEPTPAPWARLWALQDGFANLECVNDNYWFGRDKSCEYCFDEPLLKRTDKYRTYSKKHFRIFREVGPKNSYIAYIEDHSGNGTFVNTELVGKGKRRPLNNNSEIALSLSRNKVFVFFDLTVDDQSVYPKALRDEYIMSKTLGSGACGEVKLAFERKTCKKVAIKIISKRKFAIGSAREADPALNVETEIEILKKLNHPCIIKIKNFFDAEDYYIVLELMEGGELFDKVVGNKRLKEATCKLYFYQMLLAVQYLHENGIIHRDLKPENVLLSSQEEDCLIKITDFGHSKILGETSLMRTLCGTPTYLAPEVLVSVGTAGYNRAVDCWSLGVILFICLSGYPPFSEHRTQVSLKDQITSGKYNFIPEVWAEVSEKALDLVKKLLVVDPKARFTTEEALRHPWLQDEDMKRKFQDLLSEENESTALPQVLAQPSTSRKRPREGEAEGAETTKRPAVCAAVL

Mus musculus [28] = assay: Inhibition of EGFR exon 19 deletion activating mutant phosphorylation in human PC9 cells xenografted in SCID mouse at 10 mg/kg, po measured 6 hrs post dose; format: functional; details: PC-9, 6 h
Mus musculus [29] = assay: Inhibition of EGFR L858R/[…] double mutant phosphorylation in human NCI-H1975 cells xenografted in SCID mouse at 10 mg/kg, po measured 6 hrs post dose; format: functional; details: NCI-H1975, 6 h
Mus musculus [30] = assay: Inhibition of EGFR exon 19 deletion activating mutant phosphorylation in human PC9 cells xenografted in SCID mouse at 10 mg/kg, po measured 1 hr post dose; format: functional; details: PC-9, 1 h
Mus musculus [31] = assay: Inhibition of EGFR exon 19 deletion activating mutant phosphorylation in human PC9 cells xenografted in SCID mouse at 10 mg/kg, po measured 16 hrs post dose; format: functional; details: PC-9, 16 h
[32] = Antitumor activity against human PC9 cells harboring EGFR exon 19 deletion activating mutant xenografted in SCID mouse assessed as tumor growth inhibition at 10 mg/kg/day, po qd for 7 days relative to control; format: functional, PC-9; details: Homo sapiens, PC-9, 168 h, read-out: TGI
Mus musculus [33] = assay: Inhibition of EGFR L858R/[…] double mutant phosphorylation in human NCI-H1975 cells xenografted in SCID mouse at 10 mg/kg, po measured 1 hr post dose; format: functional; details: NCI-H1975, 1 h
Mus musculus [34] = assay: Inhibition of EGFR exon 19 deletion activating mutant phosphorylation in human PC9 cells xenografted in SCID mouse at 10 mg/kg, po measured 24 hrs post dose; format: functional; details: PC-9, 24 h
Mus musculus [35] = assay: Inhibition of EGFR L858R/[…] double mutant phosphorylation in human NCI-H1975 cells xenografted in SCID mouse at 10 mg/kg, po measured 16 hrs post dose; format: functional; details: NCI-H1975, 16 h
Mus musculus [36] = assay: Inhibition of EGFR L858R/[…] double mutant phosphorylation in human NCI-H1975 cells xenografted in SCID mouse at 10 mg/kg, po measured 24 hrs post dose; format: functional; details: NCI-H1975, 24 h
Insulin receptor [37] = target: T2, Insulin receptor; assay: Inhibition of INSR (unknown origin)
Mus musculus [38] = assay: Inhibition of EGFR L858R/[…] double mutant phosphorylation in human NCI-H1975 cells xenografted in SCID mouse at 10 mg/kg, po measured 30 hrs post dose; format: functional; details: NCI-H1975, 30 h

T1 sequence (P08069 31-736 limits assumed): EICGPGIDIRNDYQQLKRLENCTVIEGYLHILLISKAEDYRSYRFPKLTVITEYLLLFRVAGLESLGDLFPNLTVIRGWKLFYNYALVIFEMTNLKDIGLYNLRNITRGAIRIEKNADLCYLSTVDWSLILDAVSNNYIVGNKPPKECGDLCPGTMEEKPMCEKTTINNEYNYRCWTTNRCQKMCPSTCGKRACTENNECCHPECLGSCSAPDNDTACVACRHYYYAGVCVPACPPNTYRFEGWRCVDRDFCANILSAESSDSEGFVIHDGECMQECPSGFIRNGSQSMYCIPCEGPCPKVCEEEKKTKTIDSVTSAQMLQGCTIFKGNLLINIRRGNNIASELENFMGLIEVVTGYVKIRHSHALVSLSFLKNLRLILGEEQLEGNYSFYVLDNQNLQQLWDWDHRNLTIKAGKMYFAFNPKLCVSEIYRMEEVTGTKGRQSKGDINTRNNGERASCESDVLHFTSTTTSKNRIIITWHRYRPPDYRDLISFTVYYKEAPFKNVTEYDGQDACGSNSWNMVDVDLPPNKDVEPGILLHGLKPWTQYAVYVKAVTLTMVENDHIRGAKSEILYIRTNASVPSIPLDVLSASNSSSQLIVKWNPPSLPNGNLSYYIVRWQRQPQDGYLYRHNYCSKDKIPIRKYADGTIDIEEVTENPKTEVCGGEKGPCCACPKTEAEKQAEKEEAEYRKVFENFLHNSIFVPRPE
T1 sequence (P08069 741-1367 limits assumed): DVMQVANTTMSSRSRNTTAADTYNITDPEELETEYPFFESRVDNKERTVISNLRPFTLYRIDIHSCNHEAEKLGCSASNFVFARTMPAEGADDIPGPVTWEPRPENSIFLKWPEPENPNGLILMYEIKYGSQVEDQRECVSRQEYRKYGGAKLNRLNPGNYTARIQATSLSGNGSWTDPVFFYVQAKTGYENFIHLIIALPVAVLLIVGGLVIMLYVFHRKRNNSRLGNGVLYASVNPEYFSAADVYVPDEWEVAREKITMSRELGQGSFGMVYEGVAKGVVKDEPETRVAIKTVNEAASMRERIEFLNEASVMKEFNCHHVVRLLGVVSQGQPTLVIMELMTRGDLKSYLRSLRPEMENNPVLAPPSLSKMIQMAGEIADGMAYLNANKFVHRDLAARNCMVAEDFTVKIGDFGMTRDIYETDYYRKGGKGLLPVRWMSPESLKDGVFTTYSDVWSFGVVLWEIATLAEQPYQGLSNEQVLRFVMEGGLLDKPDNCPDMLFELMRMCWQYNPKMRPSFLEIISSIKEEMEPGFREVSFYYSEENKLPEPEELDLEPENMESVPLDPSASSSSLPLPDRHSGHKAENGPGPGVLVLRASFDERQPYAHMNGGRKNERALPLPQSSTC
Chain of Calcium/calmodulin-dependent protein kinase kinase 2 (Homo sapiens) (Q96RR4 2-588 limits assumed): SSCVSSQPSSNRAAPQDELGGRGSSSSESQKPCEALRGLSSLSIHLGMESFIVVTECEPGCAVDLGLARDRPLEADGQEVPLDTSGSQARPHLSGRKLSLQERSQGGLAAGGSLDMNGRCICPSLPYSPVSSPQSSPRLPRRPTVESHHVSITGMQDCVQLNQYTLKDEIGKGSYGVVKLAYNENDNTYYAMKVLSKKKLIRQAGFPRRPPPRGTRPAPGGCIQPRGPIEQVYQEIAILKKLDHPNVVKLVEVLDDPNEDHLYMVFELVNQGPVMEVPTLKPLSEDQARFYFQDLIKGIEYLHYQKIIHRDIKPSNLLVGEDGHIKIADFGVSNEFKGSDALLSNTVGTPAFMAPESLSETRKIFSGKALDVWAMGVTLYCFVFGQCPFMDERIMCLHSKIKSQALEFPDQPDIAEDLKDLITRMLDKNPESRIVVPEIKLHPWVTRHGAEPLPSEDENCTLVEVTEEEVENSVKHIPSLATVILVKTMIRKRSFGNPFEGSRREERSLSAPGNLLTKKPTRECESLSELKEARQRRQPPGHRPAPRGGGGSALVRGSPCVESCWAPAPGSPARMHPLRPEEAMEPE

## C=CC(=O)Nc1cc(Nc2ncc(Cl)c(-c3cnn4ccccc34)n2)c(OC)cc1N1CCN(C(=O)[C@@H](C)N)CC1
[1]
  logD: 2.1

## C=CC(=O)Nc1cc(Nc2ncc(Cl)c(-c3cnn4ccccc34)n2)c(OC)cc1N1CCN(C)CC1
[2]
  IC50: 2 nM
[3]
  inhibition: 92%
[4]
  inhibition: 97%

## C=CC(=O)Nc1cc(Nc2nccc(-c3c[nH]c4ccccc34)n2)c(OC)cc1N(C)CCN(C)C
NCI-H1975 [5]
  GI50: 16 nM
[6]
  GI50: 58 nM
NCI-H1975 [7]
  inhibition in vivo at 10 mg/kg/day: 123%
[8]
  fraction unbound: 0.16
A-431 [9]
  inhibition in vivo at 5 mg/kg/day: 85%
[2]
  IC50: 263 nM
[1]
  logD: 2.9
[10]
  solubility thermodynamic: 79 µM (≈ 38.4 µg/mL)
A-431 [11]
  inhibition in vivo at […]: 83%
[12]
  fraction unbound: 0.075
A-431 [13]
  inhibition in vivo at 10 mg/kg/day: 133%
[14]
  GI50: 21 nM
[15]
  fraction unbound: 0.134
NCI-H1975 [16]
  inhibition in vivo at 5 mg/kg/day: 125%
NCI-H1975 [17]
  inhibition in vivo at […]: 78%

## C=CC(=O)Nc1cc(Nc2ncc(Cl)c(-c3cnn4ccccc34)n2)c(OC)cc1N1CCN(C(=O)CNC)CC1
[1]
  logD: 1.8

## C=CC(=O)Nc1cc(Nc2ncc(Cl)c(-c3cnn4ccccc34)n2)c(OC)cc1N1CCN(C(=O)N2CCNCC2)CC1
[1]
  logD: 2

## C=CC(=O)Nc1cc(Nc2nccc(-c3c[nH]c4ccccc34)n2)c(OC)cc1N1CCN(C)CC1
[18]
  IC50: 1200 nM
[19]
  hepatocyte CLint: 53 µL/min/1e6 cells
[20]
  IC50: 15 nM
[2]
  IC50: 813 nM
[21]
  IC50: 63 nM
[10]
  solubility thermodynamic: 828 µM (≈ 400 µg/mL)

## C=CC(=O)Nc1cc(Nc2ncc(Cl)c(-c3c[nH]c4ccccc34)n2)c(OC)cc1N(C)CCN(C)C
NCI-H1975 [5]
  GI50: 2 nM
[6]
  GI50: 144 nM
[8]
  fraction unbound: 0.075
[2]
  IC50: 7 nM
[1]
  logD: 3.3
[10]
  solubility thermodynamic: 75 µM (≈ 39 µg/mL)
[12]
  fraction unbound: 0.036
[14]
  GI50: 2 nM

## C=CC(=O)Nc1cc(Nc2ncc(C#N)c(-c3cn(C)c4ccccc34)n2)c(OC)cc1N(C)CCN(C)C
NCI-H1975 [5]
  GI50: 2 nM
[6]
  GI50: 101 nM
[22]
  hepatocyte CLint: 10 µL/min/1e6 cells
[8]
  fraction unbound: 0.11
[23]
  bioavailability: 6%
[24]
  IC50: 4300 nM
[2]
  IC50: 38 nM
[1]
  logD: 2.7
[10]
  solubility thermodynamic: 57 µM (≈ 29.9 µg/mL)
[12]
  fraction unbound: 0.089
Rattus norvegicus
  clearance: 62 mL/min/kg
[14]
  GI50: 0.8 nM
[25]
  Cmax: 110 nM

## C=CC(=O)Nc1cc(Nc2ncc(Cl)c(-c3cnn4ccccc34)n2)c(OC)cc1N1CCN(C(=O)[C@@H]2CCCCN2)CC1
[1]
  logD: 2.2

## C=CC(=O)Nc1cc(Nc2ncc(C)c(-c3cn(C)c4ccccc34)n2)c(OC)cc1N(C)CCN(C)C
[2]
  IC50: 196 nM

## COc1ccc(NC(=O)/C=C/CN(C)C)cc1Nc1ncc(Cl)c(-c2cnn3ccccc23)n1
Insulin receptor [26]
  inhibition: 97%
[2]
  IC50: 4 nM
[3]
  inhibition: 94%
[4]
  inhibition: 98%
[27]
  inhibition: 90%

## C=CC(=O)Nc1cc(Nc2ncc(Cl)c(-c3cnn4ccccc34)n2)c(OC)cc1N1CCN(C(=O)[C@H]2CCCCN2)CC1
[1]
  logD: 2.2

## C=CC(=O)Nc1cc(Nc2ncc(Cl)c(-c3cnn4ccccc34)n2)c(OC)cc1N1CC(N(C)C)C1
Mus musculus [28]
  inhibition in vivo at 10 mg/kg: 85%
Insulin receptor [26]
  inhibition: 98%
Mus musculus [29]
  inhibition in vivo at 10 mg/kg: 99%
NCI-H1975 [7]
  inhibition in vivo at 10 mg/kg/day: 113%
Mus musculus [30]
  inhibition in vivo at 10 mg/kg: 57%
[2]
  IC50: 26 nM
Mus musculus [31]
  inhibition in vivo at 10 mg/kg: 52%
[32]
  inhibition in vivo at 10 mg/kg/day: 169%
Mus musculus [33]
  inhibition in vivo at 10 mg/kg: 37%
A-431 [13]
  inhibition in vivo at 10 mg/kg/day: 16%
Mus musculus [34]
  inhibition in vivo at 10 mg/kg: 19%
[4]
  inhibition: 97%
Mus musculus [35]
  inhibition in vivo at 10 mg/kg: 82%
Mus musculus [36]
  inhibition in vivo at 10 mg/kg: 79%
Insulin receptor [37]
  IC50: 35 nM
Mus musculus [38]
  inhibition in vivo at 10 mg/kg: 50%

## C=CC(=O)Nc1cc(Nc2ncc(Cl)c(-c3cn(C)c4ccccc34)n2)c(OC)cc1N(C)CCN(C)C
NCI-H1975 [5]
  GI50: 4 nM
[6]
  GI50: 192 nM
[22]
  hepatocyte CLint: 10 µL/min/1e6 cells
[23]
  bioavailability: 7%
[24]
  IC50: 7400 nM
[2]
  IC50: 40 nM
[1]
  logD: 3.3
[10]
  solubility thermodynamic: 759 µM (≈ 405 µg/mL)
[12]
  fraction unbound: 0.023
Rattus norvegicus
  clearance: 27 mL/min/kg
[14]
  GI50: 3 nM
[25]
  Cmax: 310 nM

## C=CC(=O)Nc1cc(Nc2ncc(Cl)c(-c3cnn4ccccc34)n2)c(OC)cc1N1CCN(C(=O)CN(C)C)CC1
[1]
  logD: 2.6

## C=CC(=O)Nc1cc(Nc2ncc(Cl)c(-c3cnn4ccccc34)n2)c(OC)cc1N1CC[C@@H](N(C)C)C1
Mus musculus [28]
  inhibition in vivo at 10 mg/kg: 76%
Insulin receptor [26]
  inhibition: 98%
Mus musculus [29]
  inhibition in vivo at 10 mg/kg: 94%
[2]
  IC50: 7 nM
[32]
  inhibition in vivo at 10 mg/kg/day: 227%
A-431 [13]
  inhibition in vivo at 10 mg/kg/day: 27%
Mus musculus [34]
  inhibition in vivo at 10 mg/kg: 68%
[4]
  inhibition: 98%
Mus musculus [36]
  inhibition in vivo at 10 mg/kg: 88%
Insulin receptor [37]
  IC50: 21 nM

— ChEMBL document CHEMBL3351341, “Discovery of a potent and selective EGFR inhibitor (AZD9291) of both sensitizing and T790M resistance mutations that spares the wild type form of the receptor” (J Med Chem, 2014)
